Here are results for three compounds from ChEMBL document CHEMBL1149241 (J Med Chem, 2004).

The target in this assay is Beta-secretase 1 (Homo sapiens, UniProt P56817). Briefly: Inhibition of BACE1 by electrochemiluminescence assay.
Sequence of Beta-secretase 1 (P56817 whole entry): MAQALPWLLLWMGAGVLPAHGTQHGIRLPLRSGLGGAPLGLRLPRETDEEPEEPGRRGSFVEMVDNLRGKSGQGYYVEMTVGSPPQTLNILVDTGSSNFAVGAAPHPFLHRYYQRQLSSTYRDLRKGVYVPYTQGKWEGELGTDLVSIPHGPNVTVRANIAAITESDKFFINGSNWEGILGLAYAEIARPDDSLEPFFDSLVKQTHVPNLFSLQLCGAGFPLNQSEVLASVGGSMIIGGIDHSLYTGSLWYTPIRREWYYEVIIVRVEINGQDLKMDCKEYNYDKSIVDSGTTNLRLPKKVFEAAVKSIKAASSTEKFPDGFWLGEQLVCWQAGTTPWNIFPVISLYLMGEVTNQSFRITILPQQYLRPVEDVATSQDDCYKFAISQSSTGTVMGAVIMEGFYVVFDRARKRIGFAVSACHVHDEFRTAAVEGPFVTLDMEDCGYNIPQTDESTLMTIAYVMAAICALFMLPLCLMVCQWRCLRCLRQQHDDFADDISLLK
The IC50 is the concentration that inhibits the measured activity by half. Read a low IC50 as greater potency in that assay. `C[C@@H](NC(=O)c1cc(OCC(=O)NCCCCCN)cc(-c2ccccc2C#N)c1)c1ccccc1` had an IC50 of 21 µM. Then `C[C@@H](NC(=O)c1cc(OCC(=O)NCCCCCN)cc(OS(=O)(=O)Cc2ccccc2)c1)c1ccccc1`, with 3.4 µM; and `CC(NC(=O)c1cc(OCC(=O)NCCCCCN)cc(OS(=O)(=O)Cc2ccccc2)c1)c1ccccc1` (single isomer, unassigned), with above 100 µM.
